Laboratory results from patent US20170189409A1, “MEDICAL USE” (Almirall, S.A., priority 2014, published 2017).

Tests used:
[1] = system: anti-Dsg3 and anti-dsDNA autoantibody production; assay: MRL/lpr mouse spontaneous autoimmune disease model, autoantibody production; assay type: in vivo
Experimental: The primary endpoint of this study was assessment of autoantibody production, including pemphigus-specific anti-Dsg3 antibodies.
The prednisolone dose was selected based on previous reports and corresponds to a high CS dose in humans.
As autoantibodies develop progressively and may follow a different course in each animal, anti-dsDNA antibody levels were measured on week 12 and used to uniformly distribute animals to dosing groups. At week 13, daily treatments were initiated and continued for 6 weeks. Antibodies to dsDNA and Dsg3 were measured at weeks 12, 15, 17 and 19. Skin lesions were inspected visually throughout the study. Effects on other parameters such as proteinuria, as well as general hematological, serological, and histological signs were evaluated at study completion.

[2] = system: autoantibody-mediated cutaneous lesions; assay: Immunization-induced mouse model of epidermolysis bullosa acquista (EBA); assay type: in vivo, B6.SJL-H2s mice; conditions: for body weight gain: 6 week treatment, LAS191954 3 mg/kg/day, methylprednisolone 20 mg/kg/day
Experimental: Induction of experimental EBA was performed as described in […] et al., J Immunol. 2013; 191:2978-2988. Briefly, 6-10 week B6.SJL-[…] mice were immunized with an emulsion of a recombinant protein encompassing the vWFA2 binding domain of mouse type VII collagen (COL7) in adjuvant (Titermax). After immunization, mice were weekly evaluated for the presence and extend of clinical disease, measured as percentage of body surface affected by skin lesions (erythema, blisters, erosions and crusts). […] Treatments were carried out over a 6-week period, and mice were evaluated for the extend of clinical disease (primary endpoint) weekly. […] For better comparability between experiments, the affected body surface area at weeks 1-6 was related to that at inclusion (set at 1). Body weight was monitored weekly during treatment.

[3] = system: anti-KLH antibody response; assay: Primary T-dependent antibody response (TDAR) to KLH in mice; assay type: in vivo
Experimental: This assay allows a global assessment of the effect of a drug candidate on antigen presentation, helper T lymphocyte function and B lymphocyte dependent antibody production.
In both cases, the administration of the test compound started on the day of sensitization (day +1, KLH 2 mg/mouse, intravenously). […] A possible reason for this discrepancy is that the lymphocyte count of the concurrent vehicle group of the latter study was abnormally lower than usual, which could mask a potential effect of the test compound on this parameter.

[4] = system: anti-Dsg3 antibody-induced skin damage; assay: Neonatal passive transfer model; conditions: for mice with blisters: 8 mice treated
[5] = system: anti-KLH antibody response; assay: Secondary TDAR assay to KLH in mice; assay type: in vivo
Experimental: This assay included two immunizations with KLH separated 15 days apart (50 μg KLH/animal, intraperitoneally) and specific IgG anti-KLH levels were measured on day +11 after the second immunization. Administration of test compound (0.3 and 3 mg/kg) started on the day of second immunization (day +1) and then once daily for the next 9 days.

PI3K p110β = PI3K p110β (Homo sapiens, UniProt P42338); conditions: compound pre-incubation time of 30 min
Sequence of PI3K p110β (P42338 whole entry): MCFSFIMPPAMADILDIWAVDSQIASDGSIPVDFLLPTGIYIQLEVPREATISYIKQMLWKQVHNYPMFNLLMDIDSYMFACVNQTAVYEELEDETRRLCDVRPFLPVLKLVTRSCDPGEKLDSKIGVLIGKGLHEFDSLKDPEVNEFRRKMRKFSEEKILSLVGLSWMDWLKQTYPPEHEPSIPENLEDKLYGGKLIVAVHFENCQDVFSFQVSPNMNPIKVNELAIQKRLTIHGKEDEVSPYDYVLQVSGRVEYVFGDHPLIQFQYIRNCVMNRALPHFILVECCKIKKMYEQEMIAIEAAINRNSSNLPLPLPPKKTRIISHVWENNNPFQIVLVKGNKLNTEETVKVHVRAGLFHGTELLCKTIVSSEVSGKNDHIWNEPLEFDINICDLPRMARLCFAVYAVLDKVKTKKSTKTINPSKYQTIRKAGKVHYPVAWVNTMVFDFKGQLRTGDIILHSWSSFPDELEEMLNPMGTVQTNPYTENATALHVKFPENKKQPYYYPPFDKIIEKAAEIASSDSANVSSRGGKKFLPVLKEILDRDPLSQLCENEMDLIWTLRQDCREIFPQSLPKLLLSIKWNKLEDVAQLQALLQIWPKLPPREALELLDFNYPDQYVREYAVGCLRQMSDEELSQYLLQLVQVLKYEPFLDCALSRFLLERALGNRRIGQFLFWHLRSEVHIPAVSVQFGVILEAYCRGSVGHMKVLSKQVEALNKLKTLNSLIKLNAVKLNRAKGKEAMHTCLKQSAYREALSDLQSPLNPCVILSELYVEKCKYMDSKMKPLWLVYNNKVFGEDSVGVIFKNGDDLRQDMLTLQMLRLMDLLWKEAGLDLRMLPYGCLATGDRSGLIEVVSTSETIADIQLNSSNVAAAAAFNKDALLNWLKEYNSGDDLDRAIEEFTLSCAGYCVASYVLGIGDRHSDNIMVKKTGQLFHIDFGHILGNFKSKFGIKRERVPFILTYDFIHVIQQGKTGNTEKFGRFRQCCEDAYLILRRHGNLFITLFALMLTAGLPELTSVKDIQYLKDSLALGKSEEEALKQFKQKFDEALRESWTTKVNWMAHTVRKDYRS
Sequence of PI3K p110β (P27986 whole entry partner): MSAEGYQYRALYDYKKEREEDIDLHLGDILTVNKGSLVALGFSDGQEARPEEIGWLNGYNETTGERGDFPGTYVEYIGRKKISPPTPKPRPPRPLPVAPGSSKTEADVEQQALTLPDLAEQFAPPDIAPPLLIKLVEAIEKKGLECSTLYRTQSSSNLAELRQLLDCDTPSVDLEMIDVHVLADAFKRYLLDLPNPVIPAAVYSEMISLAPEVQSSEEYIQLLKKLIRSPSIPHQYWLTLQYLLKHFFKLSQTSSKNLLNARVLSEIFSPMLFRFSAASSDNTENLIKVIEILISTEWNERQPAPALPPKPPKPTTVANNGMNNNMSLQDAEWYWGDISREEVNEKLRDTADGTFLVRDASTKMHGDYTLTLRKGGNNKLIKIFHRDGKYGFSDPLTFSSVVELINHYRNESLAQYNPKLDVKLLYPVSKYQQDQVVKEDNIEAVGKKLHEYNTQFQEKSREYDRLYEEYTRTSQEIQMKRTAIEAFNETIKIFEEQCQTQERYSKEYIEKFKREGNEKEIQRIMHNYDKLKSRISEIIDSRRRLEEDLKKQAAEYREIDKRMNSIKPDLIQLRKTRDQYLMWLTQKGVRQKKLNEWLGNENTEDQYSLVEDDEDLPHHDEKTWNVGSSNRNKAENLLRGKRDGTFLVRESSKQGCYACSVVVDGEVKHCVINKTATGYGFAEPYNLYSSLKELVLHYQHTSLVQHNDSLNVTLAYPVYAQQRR

PI3K p110α = PI3K p110α (Homo sapiens, UniProt P42336); conditions: compound pre-incubation time of 30 min
Sequence of PI3K p110α (P42336 whole entry): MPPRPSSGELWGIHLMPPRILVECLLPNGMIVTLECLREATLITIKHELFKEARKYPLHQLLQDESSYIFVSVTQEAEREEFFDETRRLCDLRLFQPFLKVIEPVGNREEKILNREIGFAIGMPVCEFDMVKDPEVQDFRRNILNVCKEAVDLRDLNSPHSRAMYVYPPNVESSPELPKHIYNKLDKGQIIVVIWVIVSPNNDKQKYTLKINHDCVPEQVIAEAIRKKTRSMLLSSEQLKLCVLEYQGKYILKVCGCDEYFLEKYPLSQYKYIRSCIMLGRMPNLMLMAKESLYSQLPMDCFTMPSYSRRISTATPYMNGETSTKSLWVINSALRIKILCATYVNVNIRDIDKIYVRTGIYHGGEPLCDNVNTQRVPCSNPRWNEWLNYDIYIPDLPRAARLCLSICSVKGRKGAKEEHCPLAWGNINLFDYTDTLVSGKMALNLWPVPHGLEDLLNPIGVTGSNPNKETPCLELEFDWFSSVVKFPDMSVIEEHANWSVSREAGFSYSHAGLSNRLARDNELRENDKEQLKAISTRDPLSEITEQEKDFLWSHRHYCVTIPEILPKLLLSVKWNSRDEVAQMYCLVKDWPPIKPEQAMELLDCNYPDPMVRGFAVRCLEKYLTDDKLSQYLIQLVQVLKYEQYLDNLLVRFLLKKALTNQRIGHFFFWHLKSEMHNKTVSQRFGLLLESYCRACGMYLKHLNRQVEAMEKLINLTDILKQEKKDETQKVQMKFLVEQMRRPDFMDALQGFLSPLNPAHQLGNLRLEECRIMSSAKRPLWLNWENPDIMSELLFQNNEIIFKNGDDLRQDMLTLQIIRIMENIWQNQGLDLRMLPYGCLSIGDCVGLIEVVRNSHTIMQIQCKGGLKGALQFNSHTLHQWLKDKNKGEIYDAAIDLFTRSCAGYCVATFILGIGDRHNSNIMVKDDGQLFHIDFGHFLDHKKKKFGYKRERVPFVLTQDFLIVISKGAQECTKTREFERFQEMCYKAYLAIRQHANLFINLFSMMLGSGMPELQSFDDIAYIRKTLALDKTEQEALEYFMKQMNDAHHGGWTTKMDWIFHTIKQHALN
Sequence of PI3K p110α (P27986 whole entry partner): as the sequence (P27986 whole entry partner) above

[6] = week 19 versus week 12 (FIG. 3)

## C[C@]12C=CC(=O)C=C1CC[C@@H]1[C@@H]2[C@@H](O)C[C@@]2(C)[C@H]1CC[C@]2(O)C(=O)CO [Prednisolone, prednisolone, reference compound]
[1]; [6]
  change of anti-dsDNA antibody levels at the end of treatment: doubled

## C[C@H]1C[C@@H]2[C@H]([C@@H](O)C[C@@]3(C)[C@H]2CC[C@]3(O)C(=O)CO)[C@@]2(C)C=CC(=O)C=C12 [Methylprednisolone, reference compound]
[2]
  body weight gain: diminished the body weight gain

## C[C@H](Nc1ncnc(N)c1C#N)c1nn2ccc(C#N)c2c(=O)n1-c1ccccc1 [LAS191954, (S)-2-(1-(6-amino-5-cyanopyrimidin-4-ylamino)ethyl)-4-oxo-3-phenyl-3,4-dihydropyrrolo[1,2-f][1,2,4]triazine-5-carbonitrile]
[3]; day +5 PI, 4 days of daily treatment, 0.03-10 mg/kg
  ID50, primary IgM antibody responses to KLH: 0.12 mg/kg
[3]; day +15 PI, 14-day dosing, 0.03-1 mg/kg
  ID50, primary IgG antibody responses to KLH: 0.17 mg/kg
[3]; primary IgG study
  lymphocyte count: no apparent effect
[3]; primary IgM and IgG studies
  general health status of the animals: without apparent effects
[3]; primary IgM study, mainly reduced peripheral blood lymphocytes
  WBC counts: lower WBC counts
[4]; PV IgG + LAS191954 1 mg/kg
  % with blisters: 75%
  mice with blisters: 6
[4]; PV IgG + LAS191954 10 mg/kg
  % with blisters: 100%
  mice with blisters: 8
[4]; mouse, in vivo
  effect on anti-Dsg3 antibody-induced skin damage: no direct effect
[5]; day +11 after second immunization, 0.3 and 3 mg/kg once daily
  ID50, secondary IgG antibody responses to KLH: <0.3 mg/kg
[5]; secondary TDAR, 0.3 and 3 mg/kg
  lymphocyte counts: reduced lymphocyte counts
PI3K p110β
  IC50: 0.0942 µM
[1]; Mrl/Lpr model, repeated administration
  ID50, anti-Dsg3 and anti-dsDNA autoantibody production: <3 mg/kg
[1]; [6]
  reduction of anti-dsDNA antibody titers: 10%
[2]
  body weight gain: not altered
[2]; LAS191954 orally 3 mg/kg/day, 6 weeks, versus vehicle
  overall disease activity, AUC of clinical score: significant reduction in the accumulative clinical score
PI3K p110α
  IC50: 8.22 µM
